Results on 55 compounds are retold here after patent US20240327364A1, “THERAPEUTIC TARGETING OF GPR68 TO INDUCE FERROPTOSIS” (University Of Maryland, Baltimore, priority 2023, published 2024).

Some results are limits rather than exact numbers.

For one experiment, the target named is T1, GPR68/OGR1 (Homo sapiens, UniProt Q15743).
T1 construct: host or cells: Chem-1 (CHEM1-OGR1) cells
T1 sequence (Q15743 whole entry): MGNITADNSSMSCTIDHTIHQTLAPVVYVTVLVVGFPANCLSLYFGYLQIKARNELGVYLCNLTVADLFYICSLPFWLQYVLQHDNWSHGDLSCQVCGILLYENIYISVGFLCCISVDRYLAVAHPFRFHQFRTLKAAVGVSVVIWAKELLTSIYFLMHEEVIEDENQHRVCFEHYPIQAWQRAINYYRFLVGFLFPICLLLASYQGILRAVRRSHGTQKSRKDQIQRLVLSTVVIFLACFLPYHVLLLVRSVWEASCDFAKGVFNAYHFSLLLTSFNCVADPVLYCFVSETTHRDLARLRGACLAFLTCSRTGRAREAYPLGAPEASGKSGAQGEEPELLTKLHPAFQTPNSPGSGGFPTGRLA
The experiment can be described thus: CHEM1-OGR1 cells Fluo-8 calcium assay, acidified media pH 6.4. It counts as cell-based. Particulars: Table 5; read-out: GPR68. As for the experimental part:
Briefly, the methods were: On the day before the assay 20,000 cells per well of CHEM1-OGR1 cells were plated in 10% DMEM containing 10% FBS and 1% Pen/Strep into a 96 well plate. After 24 hours media was removed and cells were stained with 80 μL Fluo-8 calcium indicator dye according to manufacturer's protocol. After staining cells were treated with 20 uL of 4× concentration of test compounds. Using kinetic imaging in the Lionheart HCS fluorescence intensity was continuously measure at 10 frames per second, for 5 seconds before 100 μL of acidified media was added to the well resulting in a pH of 6.4. A ratio of fluorescence intensities prior to addition and at peak were calculated and averaged. The resulting data were platted and using a 4 parameter logistic regression EC50 (the concentration causing 50% effective inhibition) for each test compound was determined.
Regarding `CN1C(=O)C2(NN=C(c3cccc4ccccc34)S2)c2ccccc21` (stereo not shown) [OGM6], the EC50 turned out to be 1500 nM.

Staying with this experiment, now noted: concentration causing 50% effective inhibition of calcium response to pH 6.4; read-out: EC50.
As for `O=C1Nc2ccc(Cl)cc2C12NN=C(c1ccccc1)S2` (stereo not shown) [OGM7], the EC50 stood at 1170 nM.
Turning to `O=C1Nc2ccccc2C12NN=C(c1ccccc1)S2` (stereo not shown) [OGM8], the EC50 was determined as 2740 nM.
Still for that read-out and setting: with `O=C1Nc2ccc(F)cc2C12NN=C(c1ccccc1)S2` (stereo not shown) [OGM9] the figure was 2840 nM; with `COc1ccc(C2=NNC3(S2)C(=O)Nc2ccccc23)cc1` (stereo not shown) [OGM10], 1440 nM; with `COc1ccc(C2=NNC3(S2)C(=O)Nc2ccc(Cl)cc23)cc1` (stereo not shown) [OGM11], 4390 nM.
On the same count and under the same terms, with `COc1ccc(C2=NNC3(S2)C(=O)Nc2ccc(F)cc23)cc1` (stereo not shown) [OGM12] the figure was 756 nM; with `O=C1Nc2ccccc2C12NN=C(c1ccc(Cl)cc1)S2` (stereo not shown) [OGM13], under 826 nM.
Turning to `O=C1Nc2ccc(F)cc2C12NN=C(c1ccc(Cl)cc1)S2` (stereo not shown) [OGM14], the EC50 was found to be 1830 nM.
Regarding `Cc1ccc(C2=NNC3(S2)C(=O)Nc2ccccc23)cc1` (stereo not shown) [OGM15], the EC50 is 1060 nM.
In the case of `Cc1ccc(C2=NNC3(S2)C(=O)Nc2ccc(Cl)cc23)cc1` (stereo not shown) [OGM16], the EC50 is 785 nM.
As for `Cc1ccc(C2=NNC3(S2)C(=O)Nc2ccc(F)cc23)cc1` (stereo not shown) [OGM18], the EC50 was 769 nM.
As to `O=C1Nc2ccc(Cl)cc2C12NN=C(c1ccc(Cl)cc1)S2` (stereo not shown) [OGM19], the EC50 was found to be 2320 nM.
The same measure, in the same setting: the figure for `O=C1Nc2ccccc2C12NN=C(c1ccc(F)cc1)S2` (stereo not shown) [OGM20] is 4000 nM; for `O=C1Nc2ccc(Cl)cc2C12NN=C(c1ccc(F)cc1)S2` (stereo not shown) [OGM21] it is 722 nM; for `COc1ccc2c(c1)C1(NN=C(c3ccc(Cl)cc3)S1)C(=O)N2` (stereo not shown) [OGM22] it is 669 nM.
The same measure, in the same setting: the figure for `O=C1Nc2ccc(Cl)cc2C12NN=C(c1cccc3ccccc13)S2` (stereo not shown) [OGM23] is 500 nM; for `COc1ccc2cc(C3=NNC4(S3)C(=O)Nc3ccc(Cl)cc34)ccc2c1` (stereo not shown) [OGM24] it is 90 nM; for `COc1ccc2cc(C3=NNC4(S3)C(=O)Nc3ccc(F)cc34)ccc2c1` (stereo not shown) [OGM26] it is 655 nM.
Turning to `CCc1ccc2c(c1)C1(NN=C(c3ccc4cc(OC)ccc4c3)S1)C(=O)N2` (stereo not shown) [OGM27], the EC50 is over 10000 nM.
The same measure, in the same setting: with `CCc1ccc2c(c1)C1(NN=C(c3ccc(OC)cc3)S1)C(=O)N2` (stereo not shown) [OGM28] the figure was over 10000 nM.
The same measure, in the same setting: the figure for `COc1ccc(C2=NNC3(S2)C(=O)N(CC=C(C)C)c2ccc(Cl)cc23)cc1` (stereo not shown) [OGM29] is over 10000 nM; for `COc1ccc(C2=NNC3(S2)C(=O)N(CC=C(C)C)c2ccccc23)cc1` (stereo not shown) [OGM30] it is over 10000 nM.
With `CC(C)=CCN1C(=O)C2(NN=C(c3ccc(Cl)cc3)S2)c2cc(Cl)ccc21` (stereo not shown) [OGM31], the EC50 is 9080 nM.
Turning to `CC(C)=CCN1C(=O)C2(NN=C(c3cccc4ccccc34)S2)c2cc(Cl)ccc21` (stereo not shown) [OGM32], the EC50 was over 10000 nM.
Still for that read-out and setting: with `CC(C)=CCN1C(=O)C2(NN=C(c3cccc4ccccc34)S2)c2ccccc21` (stereo not shown) [OGM33] the figure was over 10000 nM.
In the case of `COc1ccc2cc(C3=NNC4(S3)C(=O)N(CC=C(C)C)c3ccccc34)ccc2c1` (stereo not shown) [OGM34], the EC50 was over 10000 nM.
On the same count and under the same terms, with `COc1ccc2cc(C3=NNC4(S3)C(=O)N(CC=C(C)C)c3ccc(Cl)cc34)ccc2c1` (stereo not shown) [OGM35] the figure was over 10000 nM; with `CN1C(=O)C2(NN=C(c3ccccc3)S2)c2cc(Br)ccc21` (stereo not shown) [OGM36], 5600 nM; with `COC(=O)c1ccc2c(c1)C1(NN=C(c3ccc4ncccc4c3)S1)C(=O)N2` (stereo not shown) [OGM37], 3690 nM.
Same read-out and setting: with `COc1ccc2c(c1)C1(NN=C(c3cccc4cccnc34)S1)C(=O)N2` (stereo not shown) [OGM38] the figure was 2620 nM; with `COc1ccc2c(c1)NC(=O)C21NN=C(c2ccc3ncccc3c2)S1` (stereo not shown) [OGM39], 1170 nM.
Same read-out and setting: the figure for `CCc1ccc2c(c1)C1(NN=C(c3ccc4ncccc4c3)S1)C(=O)N2` (stereo not shown) [OGM40] is 1190 nM.
Consider `COC(=O)c1ccc2c(c1)C1(NN=C(c3ccccc3)S1)C(=O)N2` (stereo not shown) [OGM41], for which the EC50 stood at 2260 nM.
Turning to `O=C(O)c1ccc2c(c1)C1(NN=C(c3ccccc3)S1)C(=O)N2` (stereo not shown) [OGM42], the EC50 was 1880 nM.
With `COc1ccc2c(c1)C1(NN=C(c3ccc4ncccc4c3)S1)C(=O)N2` (stereo not shown) [OGM43], the EC50 is over 10000 nM.
On to `COC(=O)c1ccc2c(c1)C1(NN=C(c3cccc4cccnc34)S1)C(=O)N2` (stereo not shown) [OGM44], for which the EC50 amounted to 4050 nM.
As to `O=C1Nc2ccc(F)cc2C12NN=C(c1cccc3cccnc13)S2` (stereo not shown) [OGM46], the EC50 stood at 1470 nM.
Still for that read-out and setting: with `COC(=O)c1ccc2c(c1)C1(NN=C(c3cccnc3)S1)C(=O)N2` (stereo not shown) [OGM47] the figure was over 10000 nM; with `CCc1ccc2c(c1)C1(NN=C(c3cccnc3)S1)C(=O)N2` (stereo not shown) [OGM48], over 10000 nM; with `CCc1ccc2c(c1)C1(NN=C(c3ccnc(OC)c3)S1)C(=O)N2` (stereo not shown) [OGM49, 5-ethyl-5′-(2-methoxypyridin-4-yl)-1,2-dihydro-3′H-spiro[indole-3,2′-[1,3,4]thiadiazol]-2-one: 2,2,2-trifluoroacetic acid], 1420 nM.
On to `COc1ccc2c(c1)NC(=O)C21NN=C(c2ccnc(OC)c2)S1` (stereo not shown) [OGM51], for which the EC50 is 3570 nM.
Still for that read-out and setting: the figure for `NS(=O)(=O)c1ccc2c(c1)C1(NN=C(c3ccccc3)S1)C(=O)N2` (stereo not shown) [OGM52] is 3730 nM.
With `O=C(O)c1ccc2c(c1)C1(NN=C(c3ccc4ncccc4c3)S1)C(=O)N2` (stereo not shown) [OGM54], the EC50 is 4770 nM.
The same measure, in the same setting: with `NS(=O)(=O)c1ccc2c(c1)C1(NN=C(c3ccc4ncccc4c3)S1)C(=O)N2` (stereo not shown) [OGM55] the figure was 3930 nM; with `O=C1Nc2ccc(F)cc2C12NN=C(c1cccnc1)S2` (stereo not shown) [OGM56], 3580 nM.
Still for that read-out and setting: with `CCc1ccc2c(c1)C1(NN=C(c3cccc4cccnc34)S1)C(=O)N2` (stereo not shown) [OGM58] the figure was 5480 nM.
On the same count and under the same terms, the figure for `COc1ccc2c(c1)NC(=O)C21NN=C(c2ccncc2)S1` (stereo not shown) [OGM59] is 832 nM; for `O=C(O)c1ccc2c(c1)C1(NN=C(c3cccnc3)S1)C(=O)N2` (stereo not shown) [OGM61] it is 2190 nM.
Consider `COc1ccc2c(c1)C1(NN=C(c3ccnc(OC)c3)S1)C(=O)N2` (stereo not shown) [OGM63], for which the EC50 was 3520 nM.
With `CCc1ccc2c(c1)C1(NN=C(c3ccc(C(F)(F)F)nc3)S1)C(=O)N2` (stereo not shown) [OGM71], the EC50 came out at 10500 nM.
On to `COc1ccc2c(c1)C1(NN=C(c3ccc(Br)cc3)S1)C(=O)N2` (stereo not shown) [OGM73], for which the EC50 is over 10000 nM.
The same measure, in the same setting: the figure for `O=C1Nc2ccc(F)cc2C12NN=C(c1ccc(Br)cc1)S2` (stereo not shown) [OGM74] is 296 nM.
Take `COc1ccc2c(c1)C1(NN=C(c3ccc(C(F)(F)F)nc3)S1)C(=O)N2` (stereo not shown) [OGM75]: the EC50 worked out at 1590 nM.
For `O=C1Nc2ccc(F)cc2C12NN=C(c1ccc(C(F)(F)F)nc1)S2` (stereo not shown) [OGM76], the EC50 was determined as 5760 nM.
